Assay results published in patent publication US6346539B1, “Treatment of skin conditions” (BTG International Limited, priority 1998, dated 2002).
Like-named read-outs stand apart in the source and are kept apart here.

Experiments:
mouse melan-a cells = assay: Melanocyte proliferant activity of piperine derivatives, SRB assay, 4 days, 10% FBS; format: cell-based; settings: for Relative activity to piperine: (A-100) compound/(A-100) piperine; for More active than piperine at higher conc. (μM)? / Active at 10 μM?: overall summary; for More active than piperine at higher conc. (μM)?: concentrations at which more active than piperine
Procedure: The plates were incubated at 37° C. in a 10% CO2, 90% air humidified atmosphere for the stated length of time. At the end of the incubation, an SRB assay was performed. Briefly, cells attached to the bottom of the plate were fixed by addition of cold trichloroacetic acid (TCA, 4° C., Aldrich, Dorset, UK) on the top of the growth medium (final TCA 20% w/v). The plate was placed at 4° C. for 1 hour before being gently washed five times with tap water. It was allowed to dry in air, or aided with a hair dryer to speed up the drying process, then 50 μl of 4% w/v SRB dissolved in 1% acetic acid in water was added to each well for 30 min. At the end of the staining period, unbound SRB was removed by washing 4 times with 1% acetic acid. The plate was air dried again, and 150 μl of 10 mM aqueous Tris base (Sigma-Aldrich Co. Ltd, Irvine, UK) was added into each well to solubilize the cell-bound dye.
Various piperine derivatives of formula (1) were synthesised and tested for melanocyte (mouse melan-a) proliferant activity in-vitro. Cells we re incubated with the test compound for 4 days, as previously for the mouse cells but with 10% FBS, after which the sulphorhodamine-B (SRB) assay was performed to determnine cell number SRB uptake was measured as optical density at 550 nm. The control assay was carried out on cells incubated without test compound. There were 2 or 3 series of experiments, each of which consisted of six replcate experiments.
Percentage cell growth was obtained with a given compound calculated as (optical density in the presence of the compound/control optical density)×100.
Melan-a cell proliferant activity for tested compounds was compared with that obtained with piperine. […] All figures are given with Standard Error of the Mean.

melan-a cells = assay: Dendricity of melan-a cells by observation under microscope; format: cell-based, mouse; design: key: +++: highly dendritic; ++: moderately dendritic; +: weakly dendritic; −: no effect
Excerpt: Effect on dendricity of melan-a cells by the test compounds was by observation under microscope. Dendricity is relevant to vitiligo since normal skin melanocytes have dendrites, but in vitiligo the melanocytes seem to lose these before they disappear from the patches.

[1] = Mus musculus, Melan-a, 96 h, read-out: growth of melan-a cells as % of control, dose experiment
[2] = Mus musculus, Melan-a, 96 h, 10 μM, read-out: growth of melan-a cells as % of control, dose experiment
[3] = Mus musculus, Melan-a, 96 h, single concentration (10 μM), melan-a, ± SEM, read-out: Percentage cell growth (Repeated experiments)
[4] = single concentration (10 μM), melan-a

| SMILES | Relative activity to piperine (mouse melan-a cells; 10 μM) | activity at 1 µM (mouse melan-a cells; [1]) [%] | activity at 10 µM (mouse melan-a cells; [2]) [%] | activity at 50 µM (mouse melan-a cells; [1]) [%] | activity at 100 µM (mouse melan-a cells; [1]) [%] | activity at 10 µM (mouse melan-a cells; [3]) [%] | More active than piperine at higher conc. (μM)? (mouse melan-a cells) | Active at 10 μM? (mouse melan-a cells; melan-a) | Stimulant activity (mouse melan-a cells; [4]) | Dentricity, dose experiment (melan-a cells; 1 μM) | Dentricity, dose experiment (melan-a cells; 10 μM) | Dentricity, dose experiment (melan-a cells; 50 μM) | Dentricity, dose experiment (melan-a cells; 100 μM) | Dendricity (melan-a cells; Table 8, 10 μM) | Dendricity (melan-a cells; Table 9, 10 μM) | "cross-over" effect relative to piperine (mouse melan-a cells; 10 μM versus 50 μM) | activity at 25 µM (mouse melan-a cells; Mus musculus, Melan-a, 96 h, 25 μM, read-out: growth of melan-a cells as % of control, dose experiment) [%] | Dendricity (melan-a cells; Table 7, 10 μM) | Dendricity (melan-a cells; Table 11, 10 μM) | Dendricity (melan-a cells; Table 12, 10 μM) |
| --- | --- | --- | --- | --- | --- | --- | --- | --- | --- | --- | --- | --- | --- | --- | --- | --- | --- | --- | --- | --- |
| COc1ccccc1/C=C/C(=O)N1CCCCC1 [RV-G01, 1-(2-methoxy-cinnamoyl)-piperidine] | 0.04 | 99 ± 8 | 105 ± 8 | 103 ± 6 | 119 ± 9 | 105 ± 8 | No | No | None | − | − | − | − |  |  |  |  |  |  |  |
| O=C(/C=C/c1ccc2c(c1)OCO2)N1CCOCC1 [RV-B03, 1-(3-trans-benzo-1,3-dioxol-5-ylacryloyl)morpholine] |  |  |  |  |  | 103 ± 12 |  | No | None |  |  |  |  | − |  |  |  |  |  |  |
| CCCCOC(=O)/C=C/C=C/c1ccc2c(c1)OCO2 [RV-AB6, 5-E,E-piperinic Acid Butyl Ester] | 0.59 | 103 ± 5 | 148 ± 18 | 190 ± 11 | 128 ± 17 | 148 ± 18 |  | Yes | Positive | − | + | ++ | + |  | + |  |  |  |  |  |
| O=C(/C=C/C=C/c1ccc2c(c1)OCO2)N1CCCC1 [RV-A01, 5-E,E-piperinoylpyrrolidine] |  | 109 ± 7 | 122 ± 7 | 186 ± 14 |  | 183 ± 34 |  | Yes | Positive |  |  |  |  |  |  | less active than piperine at 10 μM but more active at 50 μM | 142 ± 21 | +++ |  |  |
| CC(C)OC(=O)/C=C/C=C/c1ccc2c(c1)OCO2 [RV-AB4, 5-E,E-piperinic Acid Isopropyl Ester] | 0.8 | 175 ± 6 | 224 ± 12 | 148 ± 19 | 90 ± 7 | 224 ± 12 |  | Yes | Positive | ++ | ++ | ++ | + |  | ++ |  |  |  |  |  |
| O=C(CCc1ccc2c(c1)OCO2)N1CCCCC1 [RV-C03, 3-benzo-1,3-dioxol-5-ylpropionic Acid Piperidide] |  |  |  |  |  | 104 ± 5 |  | No^b | None |  |  |  |  |  |  |  |  |  | + |  |
| COc1ccc(/C=C/C(=O)N2CCCCC2)cc1OC [RV-G04, 1-(3,4-dimethoxycinnamoyl)piperidine] |  | 95 ± 11 | 100 ± 9 | 114 ± 8 | 123 ± 7 | 100 ± 9 | No | No | None | − | − | − | − |  |  |  |  |  |  | − |
| COC(=O)/C=C/C=C/c1ccc2c(c1)OCO2 [RV-AB1, 5-E,E-piperinic Acid Methyl Ester] |  | 125 ± 13 | 147 ± 16 | 187 ± 12 | 171 ± 8 |  |  | Yes | Positive | − | + | ++ | ++ |  | ++ |  |  |  |  |  |
| COc1ccc(/C=C/C(=O)N2CCCCC2)cc1 [RV-G03, 1-(4-methoxy-cinnamoyl)piperidine] |  | 90 ± 10 | 108 ± 20 | 111 ± 10 | 133 ± 15 | 121 ± 8 | No | No | Non- significant | − | − | − | − |  |  |  |  |  |  | − |
